{"source": "patent US20180249707A1", "about": "“METHOD OF CONTROLLING ALGAE IN A BODY OF WATER” (priority 2013, published 2018)", "key": {"[1]": {"test_system": "Microcystis aeruginosa", "assay": "15-day flask exposure of Microcystis aeruginosa to DDA and Cutrine-Plus", "type": "cell-based", "conditions": "for Cell Densities of Microcystis aeruginosa 15 days after: initial 4.5×10^4 cells/mL", "protocol": "(§1) The experiment was conducted for 15 days and was initiated using 100 mL BG-11 medium contained in 200 mL flasks. […] The experiment was initiated by exposing the algae to 0.1, 0.2, 0.4, 0.8, and 1.6 mg/L as DDA, 0.2, 0.6, 1.0 mg Cu/L Cutrine®-Plus, and combinations of DDA and Cutrine®-Plus. […] The solution was heated in a water bath and diluted to 70 mg/L using warmed deionized water. The concentration of DMSO was approximately 350 mg/L in the test beakers. Cutrine®-Plus stock solution was made at 50 mg/L using deionized water. Three replicates of each exposure concentration, along with three replicates of an untreated reference were tested. Each sample was Maintained at room temperature with 12-hours of light and 12-hours dark photo period."}, "[2]": {"assay": "Solubility remark on stock solution preparation", "type": "physicochemical", "conditions": "stock solution made using 2% DMSO solution, heated"}, "[3]": {"test_system": "M. aeruginosa UTEX 2385", "assay": "MIC 96-well microtiter plate assay in BG-11, 10 days", "type": "cell-based, Microcystis aeruginosa", "conditions": "10 days, initial 0.1 ug/L", "protocol": "MICs for the samples against M. aeruginosa were determined in a standard 96-well microtiter plate assay in BG-11 with a starting inoculum of ˜1×10^5 cells/mL. Algae plates were incubated for 10 days. MIC concentrations were determined visually, in vivo chlorophyll a was determined fluorometrically, and cell density was determined via direct counting. Samples were tested in duplicate."}, "[4]": {"test_system": "Cladophora sp.", "assay": "15-day flask exposure of Cladophora sp. to DDA and Cutrine-Plus", "type": "cell-based", "conditions": "at concentrations comparable to Cutrine-Plus", "protocol": "as §1, with “and 12-h” for “and 12-hours”, “dark photoperiod. […] 15 days after exposure. The Bars in FIG. 3 sharing the same letter are not different according to Fishers Protected LSD test at p≤0.05 significance level.” for “dark photo period.”"}}}
{"compound": "CCCCCCCCCCCCN", "note": "[dodecylamine]", "values": [{"measurement": "log reduction in M. aeruginosa cells", "setting": "[1]; 0.4 mg/L, 15 days after start, compared to untreated reference", "value": 1, "unit": "log"}, {"measurement": "Chlorophyll a content of M. aeruginosa compared to untreated reference algae", "setting": "[1]; 0.2 to 1.6 ppm (mg/L), 15 days after start, p<0.01", "value": "reduced"}, {"measurement": "Cell Densities of Microcystis aeruginosa 15 days after", "setting": "[1]; DDA 0.1 mg/L, 15 days", "value": "5.2 × 10^6 cells/mL"}, {"measurement": "Cell Densities of Microcystis aeruginosa 15 days after", "setting": "[1]; DDA 0.2 mg/L, 15 days", "value": "6.7 × 10^6 cells/mL"}, {"measurement": "Cell Densities of Microcystis aeruginosa 15 days after", "setting": "[1]; DDA 0.4 mg/L, 15 days", "value": "8.0 × 10^5 cells/mL"}, {"measurement": "Cell Densities of Microcystis aeruginosa 15 days after", "setting": "[1]; DDA 0.8 mg/L, 15 days", "value": "<10000", "unit": "cells/mL"}, {"measurement": "Cell Densities of Microcystis aeruginosa 15 days after", "setting": "[1]; DDA 1.6 mg/L, 15 days", "value": "<10000", "unit": "cells/mL"}, {"measurement": "concentration necessary to achieve similar results as Cutrine-Plus (cell count data)", "setting": "[1]; M. aeruginosa control, 15 days", "value": 0.8, "unit": "mg/L"}, {"measurement": "effectiveness as an algaecide on Microcystis aeruginosa", "setting": "[1]; at concentrations comparable to Cutrine-Plus", "value": "effective"}, {"measurement": "solubility", "setting": "[2]", "value": "low solubility"}, {"measurement": "In vivo chlorophyll a of M. aeruginosa", "setting": "[3]; 0.031 active ppm", "value": 7.85, "unit": "µg/L"}, {"measurement": "In vivo chlorophyll a of M. aeruginosa", "setting": "[3]; 0.063 active ppm", "value": 5.75, "unit": "µg/L"}, {"measurement": "In vivo chlorophyll a of M. aeruginosa", "setting": "[3]; 0.125 active ppm", "value": 2.60, "unit": "µg/L"}, {"measurement": "In vivo chlorophyll a of M. aeruginosa", "setting": "[3]; 0.25 active ppm", "value": 0.35, "unit": "µg/L"}, {"measurement": "In vivo chlorophyll a of M. aeruginosa", "setting": "[3]; 0.5 active ppm", "value": 0.00, "unit": "µg/L"}, {"measurement": "effectiveness as an algaecide on Cladophora sp.", "setting": "[4]", "value": "effective"}]}
